The values that follow come from patent US4562176A, “Method and composition for treating cancer” (priority 1985, dated 1985).

The subject of one data set is DNA. The data set can be described thus: DNA-drug binding by difference spectral (absorption and CD) techniques. The settings on record: difference spectral or ΔTm techniques. From the text: ^b Diff. Absorption Spectra is the calculated absorption spectra
obtained by subtracting the spectrum of the DNAbound analogue from the
spectrum of the free analogue, measured at 340-600 nm.
^c Diff. CD Spectra is the calculated CD Spectra obtained as the
difference of the DNAbound from the combined individual spectra of
analogues and DNA at 340-600 nm.
Medium: 0.01 M phosphate containing 10^-4 EDTA, buffer pH 7.0.
DNA-DRUG BINDING BY DIFFERENCE SPECTRAL AND THERMAL DEVATURATION OF DNA (ΔTm) TECHNIQUES
These experiments were performed according to the methods described by Sengupta et al., Cancer Chemother. Rep., 1974, 58, p. 35, Sengupta et al, J. Med. Chem., 1981, 24, p. 1052 and Sengupta et al, 1983, 26, p. 448, Sengupta et al, 1978, Biochem. Biophys Acta, 521, p. 89.

The subject of data set [1] is human lymphoblastic leukemia cells (CCRF-CEM). The data set can be described thus: In vitro growth inhibition of CCRF-CEM cells. The following applies: for In Vitro (CCRF-CEM) ID50: cells in log-phase growth, suspension culture, final growth medium 5% Me2SO. In kind it is cell-based. As for the experimental part:
^b Human lymphoblastic luekemia cells in logphase growth and in a
suspension culture. Compounds were dissolved in Me2 SO medium, final
growth medium contained 5% Me2 SO.
In vitro growth inhibition of the analogues were assayed against human lymphoblastic leukemia cells (CCRF-CEM) in log phase. The most cyctoxic are AMD-OZN analogues 2b and 2g and AMD-OZL analogues 4a-4c. However, compared to AMD, they are several fold less cytotoxic to CEM-cells in vitro.

The test system of data set [2] is P388 lymphocytic leukemia. The data set can be described thus: In vivo P388 assay. Details: species or system mice. The following applies: ip days 1,5,9; for % ILS (percent increase in life span) / MST (median survival time) / Cure (over 60 day survivors): at optimum dose; for % ILS (percent increase in life span) / MST (median survival time): CDF1 male mice; for MST (median survival time): control MST 11.0 days; for Cure (over 60 day survivors): group of 7 CDF1 male mice, average of 2 experiments. As for the experimental part:
^c 10^6 P388 cells implanted intraperitoneally on day 0 into a
group of 7 CDF1 male mice. Drugs were administered, also ip, in 10%
Me2 SO--saline on days 1,5,9. Test solutions were kept at 0-4.degree
C., protected from light.
These analogues were tested for antitumor activity against P388 lymphocytic leukemia in male CDF1 hybrid mice (Table 6). The tumor was implanted intraperitoneally (ip) with 10^6 cells. The drugs were administered once daily on days 1, 5, 9 beginning 1 day after implantation.

Data set [3] can be described thus: Solubility in distilled water. As for the experimental part: SOLUBILITY OF ACTINOMYCIN D AND ANALOGUES 2b, 3b AND 4b IN DISTILLED WATER AT 20° C. AND 4° C.

Converted amounts (≈) assume the structure as drawn.

As to `Cc1c2oc3c(C)ccc(C(=O)N[C@@H]4C(=O)N[C@H](C(C)C)C(=O)N5CCC[C@H]5C(=O)N(C)CC(=O)N(C)[C@@H](C(C)C)C(=O)O[C@@H]4C)c3nc-2c(C(=O)N[C@@H]2C(=O)N[C@H](C(C)C)C(=O)N3CCC[C@H]3C(=O)N(C)CC(=O)N(C)[C@@H](C(C)C)C(=O)O[C@@H]2C)cc1=O` [2-deamino AMD], the “DNA binding (in words)” value in the data set on DNA was “binds to DNA strongly by intercalation”.

Take `Cc1ccc(C(=O)N[C@@H]2C(=O)N[C@H](C(C)C)C(=O)N3CCC[C@H]3C(=O)N(C)CC(=O)N(C)[C@@H](C(C)C)C(=O)O[C@@H]2C)c2c1Oc1c(c(C(=O)N[C@@H]3C(=O)N[C@H](C(C)C)C(=O)N4CCC[C@H]4C(=O)N(C)CC(=O)N(C)[C@@H](C(C)C)C(=O)O[C@@H]3C)c3nc(-c4ccccc4Cl)c(=O)oc3c1C)N2` [Compound 2c]: in data set [1], the “In Vitro (CCRF-CEM) ID50” value is 1.8 µg/mL. In data set [2], the “% ILS (percent increase in life span)” value was 172%, the “MST (median survival time)” value is 30 days and the “Cure (over 60 day survivors)” value is given as 1/7.

Regarding `Cc1ccc(C(=O)N[C@@H]2C(=O)N[C@H](C(C)C)C(=O)N3CCC[C@H]3C(=O)N(C)CC(=O)N(C)[C@@H](C(C)C)C(=O)O[C@@H]2C)c2c1Oc1c(c(C(=O)N[C@@H]3C(=O)N[C@H](C(C)C)C(=O)N4CCC[C@H]4C(=O)N(C)CC(=O)N(C)[C@@H](C(C)C)C(=O)O[C@@H]3C)c3nc(-c4cccc(Cl)c4)c(=O)oc3c1C)N2` [Compound 2d], the “In Vitro (CCRF-CEM) ID50” value in data set [1] came out at 1.6 µg/mL. For the same compound, in data set [2], the “% ILS (percent increase in life span)” value was determined as 164%, the “MST (median survival time)” value worked out at 29 days and the “Cure (over 60 day survivors)” value is on record as 0/7.

As for `Cc1ccc(C(=O)N[C@@H]2C(=O)N[C@H](C(C)C)C(=O)N3CCC[C@H]3C(=O)N(C)CC(=O)N(C)[C@@H](C(C)C)C(=O)O[C@@H]2C)c2c1Oc1c(c(C(=O)N[C@@H]3C(=O)N[C@H](C(C)C)C(=O)N4CCC[C@H]4C(=O)N(C)CC(=O)N(C)[C@@H](C(C)C)C(=O)O[C@@H]3C)c3nc(-c4ccc(Cl)cc4)c(=O)oc3c1C)N2` [Compound 2e], the “In Vitro (CCRF-CEM) ID50” value in data set [1] amounted to 1.6 µg/mL. For the same compound, in data set [2], the “% ILS (percent increase in life span)” value stood at 164%, the “MST (median survival time)” value was 29 days and the “Cure (over 60 day survivors)” value is listed as 0/7.

For `Cc1ccc(C(=O)N[C@@H]2C(=O)N[C@H](C(C)C)C(=O)N3CCC[C@H]3C(=O)N(C)CC(=O)N(C)[C@@H](C(C)C)C(=O)O[C@@H]2C)c2c1Oc1c(c(C(=O)N[C@@H]3C(=O)N[C@H](C(C)C)C(=O)N4CCC[C@H]4C(=O)N(C)CC(=O)N(C)[C@@H](C(C)C)C(=O)O[C@@H]3C)c3nc(-c4ccc(Cl)cc4Cl)c(=O)oc3c1C)N2` [Compound 2f], in data set [1], the “In Vitro (CCRF-CEM) ID50” value turned out to be 3.2 µg/mL. In addition, in data set [2], the “% ILS (percent increase in life span)” value is given as 155%, the “MST (median survival time)” value was 28 days and the “Cure (over 60 day survivors)” value is given as 0/7.

`Cc1ccc(C(=O)N[C@@H]2C(=O)N[C@H](C(C)C)C(=O)N3CCC[C@H]3C(=O)N(C)CC(=O)N(C)[C@@H](C(C)C)C(=O)O[C@@H]2C)c2c1Oc1c(c(C(=O)N[C@@H]3C(=O)N[C@H](C(C)C)C(=O)N4CCC[C@H]4C(=O)N(C)CC(=O)N(C)[C@@H](C(C)C)C(=O)O[C@@H]3C)c3nc(-c4c(F)c(F)c(F)c(F)c4F)c(=O)oc3c1C)N2` [Compound 2g]: the “cytotoxicity to CEM cells (in words)” value in data set [1] (CCRF-CEM in log phase) is on record as “most cyctoxic”. Further, the “In Vitro (CCRF-CEM) ID50” value in data set [1] came to 0.64 µg/mL. In addition, in data set [2], the “% ILS (percent increase in life span)” value amounted to 186%, the “MST (median survival time)” value is 31.5 days and the “Cure (over 60 day survivors)” value is given as 1/7.

Consider `CCCCCCc1nc2c(C(=O)N[C@@H]3C(=O)N[C@H](C(C)C)C(=O)N4CCC[C@H]4C(=O)N(C)CC(=O)N(C)[C@@H](C(C)C)C(=O)O[C@@H]3C)c3c(c(C)c2oc1=O)Oc1c(C)ccc(C(=O)N[C@@H]2C(=O)N[C@H](C(C)C)C(=O)N4CCC[C@H]4C(=O)N(C)CC(=O)N(C)[C@@H](C(C)C)C(=O)O[C@@H]2C)c1N3` [Compound 2h], for which the “In Vitro (CCRF-CEM) ID50” value in data set [1] is 2.08 µg/mL. In data set [2], the “% ILS (percent increase in life span)” value was 127%, the “MST (median survival time)” value turned out to be 25 days and the “Cure (over 60 day survivors)” value is 0/7.

For `Cc1ccc(C(=O)N[C@@H]2C(=O)N[C@H](C(C)C)C(=O)N3CCC[C@H]3C(=O)N(C)CC(=O)N(C)[C@@H](C(C)C)C(=O)O[C@@H]2C)c2c1Oc1c(c(C(=O)N[C@@H]3C(=O)N[C@H](C(C)C)C(=O)N4CCC[C@H]4C(=O)N(C)CC(=O)N(C)[C@@H](C(C)C)C(=O)O[C@@H]3C)c3nc(-c4ccc5ccccc5c4)c(=O)oc3c1C)N2` [Compound 2i, 3-(2-NAPHTHYL)-10,12-DIMETHYL-2H,6H-OXAZINO[3,2-b]PHENOXAZINE-2-ONE 5,7-BIS[CARBONYL-L-THREONYL-D-VALYL-L-PROLYLSARCOSYL-L-N-METHYLVALINE-(THR EONINE HYDROXYL)] LACTONE], the “In Vitro (CCRF-CEM) ID50” value in data set [1] was found to be 1 µg/mL. For the same compound, in data set [2], the “% ILS (percent increase in life span)” value was found to be 136%, the “MST (median survival time)” value amounted to 26 days and the “Cure (over 60 day survivors)” value was 0/7.

On to `Cc1ccc(C(=O)N[C@@H]2C(=O)N[C@H](C(C)C)C(=O)N3CCC[C@H]3C(=O)N(C)CC(=O)N(C)[C@@H](C(C)C)C(=O)O[C@@H]2C)c2c1Oc1c(c(C(=O)N[C@@H]3C(=O)N[C@H](C(C)C)C(=O)N4CCC[C@H]4C(=O)N(C)CC(=O)N(C)[C@@H](C(C)C)C(=O)O[C@@H]3C)c3nc(-c4ccccc4)oc3c1C)N2` [Compound 3b, 2-PHENYL-9,11-DIMETHYL-5H-OXAZOLO[4,5-b]PHENOXAZINE 4,6-BIS[CARBONYL-L-THREONYL-D-VALYL-L-PROLYLSARCOSYL-L-N-METHYL-VALINE-(TH REONINE HYDROXYL)] LACTONE], for which the “In Vitro (CCRF-CEM) ID50” value in data set [1] turned out to be 9 µg/mL. Also, in data set [2], the “% ILS (percent increase in life span)” value is 109%, the “MST (median survival time)” value was found to be 23 days and the “Cure (over 60 day survivors)” value is on record as 0/7.

Consider `Cc1ccc(C(=O)N[C@@H]2C(=O)N[C@H](C(C)C)C(=O)N3CCC[C@H]3C(=O)N(C)CC(=O)N(C)[C@@H](C(C)C)C(=O)O[C@@H]2C)c2c1Oc1c(c(C(=O)N[C@@H]3C(=O)N[C@H](C(C)C)C(=O)N4CCC[C@H]4C(=O)N(C)CC(=O)N(C)[C@@H](C(C)C)C(=O)O[C@@H]3C)c3nc(-c4c(F)c(F)c(F)c(F)c4F)oc3c1C)N2` [Compound 3c], for which the “In Vitro (CCRF-CEM) ID50” value in data set [1] was 12.5 µg/mL. For the same compound, in data set [2], the “% ILS (percent increase in life span)” value is recorded as 72%, the “MST (median survival time)” value worked out at 19 days and the “Cure (over 60 day survivors)” value is on record as 0/7.

As to `Cc1c2oc3c(C)c4oc(-c5ccccc5)nc4c(C(=O)N[C@@H]4C(=O)N[C@H](C(C)C)C(=O)N5CCC[C@H]5C(=O)N(C)CC(=O)N(C)[C@@H](C(C)C)C(=O)O[C@@H]4C)c3nc-2c(C(=O)N[C@@H]2C(=O)N[C@H](C(C)C)C(=O)N3CCC[C@H]3C(=O)N(C)CC(=O)N(C)[C@@H](C(C)C)C(=O)O[C@@H]2C)cc1=O` [Compound 4b, 2-PHENYL-9,11-DIMETHYL-8-OXO-8H-OXAZOLO[4,5-b]PHENOXAZINE 4,6-BIS[CARBONYL-L-THREONYL-D-VALYL-L-PROLYLSARCOSYL-L-N-METHYLVALINE-(THR EONINE HYDROXYL)] LACTONE], the “relative solubility in water (in words)” value in data set [3] was “more soluble in water at 4 °C than at 20 °C”. Also, in data set [3] (4° C.), the “solubility in distilled water” value is 11000 µg/mL (≈ 8.1 mM). Further, the “solubility in distilled water” value in data set [3] (20° C.) is 1700 µg/mL (≈ 1.25 mM). The “In Vitro (CCRF-CEM) ID50” value in data set [1] amounted to 0.31 µg/mL. In data set [1] (human cancer cells), the “activity against human cancer cells (in words)” value is reported as “highest human antitumor effects”. Also, the “antitumor activity against P388 (in words)” value in data set [2] (CDF1 mice) is given as “most active”. In data set [2], the “% ILS (percent increase in life span)” value turned out to be 300%, the “MST (median survival time)” value amounted to 44 days and the “Cure (over 60 day survivors)” value was 2/7.

Turning to `Cc1c2oc3c(C)c4oc(-c5c(F)c(F)c(F)c(F)c5F)nc4c(C(=O)N[C@@H]4C(=O)N[C@H](C(C)C)C(=O)N5CCC[C@H]5C(=O)N(C)CC(=O)N(C)[C@@H](C(C)C)C(=O)O[C@@H]4C)c3nc-2c(C(=O)N[C@@H]2C(=O)N[C@H](C(C)C)C(=O)N3CCC[C@H]3C(=O)N(C)CC(=O)N(C)[C@@H](C(C)C)C(=O)O[C@@H]2C)cc1=O` [Compound 4c], the “In Vitro (CCRF-CEM) ID50” value in data set [1] was 0.63 µg/mL. Moreover, in data set [2], the “% ILS (percent increase in life span)” value is listed as 172%, the “MST (median survival time)” value is 30 days and the “Cure (over 60 day survivors)” value was 1/7.
